Where no end group is shown, it is not given here.

For one assay, the system named is Meth A sarcoma. Briefly: Tumor growth inhibition (tumor volume) in solid tumor-bearing mice, subcutaneous administration. It is filed as in vivo, BALB/c mice. The settings on record: for antitumor activity (tumor volume) / order of intensities of the antitumor activity: FIG. 10; for tumor growth inhibiting effect (tumor volume): FIG. 3, days 1 to 11, vs distilled water. The procedure: Solid tumor-bearing mice were prepared by subcutaneously administering 0.2 ml of Meth A sarcoma cells (5×10^6 cells/ml) into the left flank of five-week-old BALB/c male mice (Japan SLC). After 6 to 10 days from sarcoma implantation, when the diameter of the post-implantation tumor in tumor-bearing mice arrived at 4 mm was taken as day 1 and, on days 1 to 11, distilled water (D.W.) as a control or 20 mg/kg/day of each of the above dendrimers (1) to (3) was subcutaneously administered for 11 consecutive days (4 mice were used in each group).
The antitumor effect of each dendrimer peptide was evaluated 6 days after implantation and thereafter by examining the tumor growth, the body weight change and the survival time (days) as an indicator of side effect. At the same time, the minor axis and major axis of each tumor were measured and the tumor volume was calculated according to the formula shown below.
Tumor volume=0.4×a×b^2 (a: major axis, b: minor axis)
Doses of 10 mg/kg×twice/day and 20 mg/kg×twice/day of the dendrimer peptide derived from the peptide of SEQ ID NO:1 as synthesized in Example 4 (1) and a dose of 20 mg/kg×twice/day of a dendrimer peptide (SEQ ID NO:18) derived from a peptide resulting from replacement of an arbitrary sequence for the sequence shown in SEQ ID NO:1, and distilled water (DW) as a control were subcutaneously administered to mice on days 1 to 10 after tumor cell implantation according to the method of Example 4 (2), and the tumor growth inhibiting activities were examined. Four to six mice per group were subjected to the experiment. The results obtained are shown in FIG. 5 in the same manner as in FIG. 3 (ordinate: tumor volume (cm^3), abscissa: days after tumor cell implantation (days)).
The three short-chain peptides synthesized and physiological saline as a control were respectively administered subcutaneously to mice on days 1 to 10 following tumor cell implantation according to the method of Example 4 (2), and the tumor growth inhibiting activities were examined. The results obtained are shown in FIG. 6 in the same manner as in FIG. 3.
A dose of 20 mg/kg/day of each of the peptides synthesized in the above manner or distilled water (DW) as a control was subcutaneously administered to mice on days 4 to 9 after tumor cell implantation according to the method of Example 4 (2), and the tumor growth inhibiting activities were examined. Three to five mice per group were used in the experiment. The results are shown in FIG. 7 in the same manner as in FIG. 3.
A dose of 20 mg/kg/day of each of the peptides synthesized in the above manner or physiological saline as a control was subcutaneously administered to mice on days 1 to 10 after tumor cell implantation according to the method of Example 4 (2), and the tumor growth inhibiting activities were examined. Four or five mice per group were used in the experiment. The results are shown in FIG. 8 in the same manner as in FIG. 3.
A dose of 20 mg/kg/day of each of the peptides synthesized in the above manner or distilled water as a control was subcutaneously administered to mice on days 1 to 10 after tumor cell implantation according to the method of Example 4 (2), and the tumor growth inhibiting activities were examined. Five or six mice per group were used in the experiment. The results are shown in FIG. 9 in the same manner as in FIG. 3.
A dose of 20 mg/kg/day of each of the peptides synthesized in the above manner or distilled water or physiological saline as a control was subcutaneously administered to mice on days 1 to 10 after tumor cell implantation according to the method of Example 4 (2), and the tumor growth inhibiting activities were examined. Five or six mice per group were used in the experiment. The results are shown in FIG. 10 (results with the peptides of SEQ ID NO:28-32) and FIG. 11 (results with the peptides of SEQ ID NO:33-35) in the same manner as in FIG. 3. […]

Assay [1] concerns B16BL6 melanoma tumor tissue. Briefly: Competitive inhibition experiment using the respective phages and synthetic 15-residue peptides. It is filed as in vivo, C57BL/6 mice. The conditions noted are these: for % Dose/100 mg tissue: tail vein; for inhibitory activity against accumulation of phages Nos. 5 and 6: synthetic peptides with common sequence WRP. The procedure:
The synthetic peptides having the amino acid sequences shown in SEQ ID NO:1, 5 and 6 were respectively administered simultaneously with the phages No. 1, No. 5 and No. 6 in a similar manner as in Example 1 (5). Each peptide was synthesized as in Example 2.
(§1) Thus, 10 days after implantation of B16BL6 melanoma (1×10^6 cells) into five-week-old C57BL/6 mice (obtained from Japan SLC), a mixed solution (0.2 ml) of 0.25 μmol of one of the above synthetic peptides and the respective phage (1×10^8 colony forming units) was administered into the tail vein of each tumor-bearing mouse under anesthesia, and the colony forming units of the phage accumulated in the tumor tissue were counted in a similar manner as mentioned above.
In a control group, synthetic peptide-free phage solutions (1×10^8 colony forming units) were administered.
Phages accumulated in neovascular tissues in tumor tissues were counted through colony formation, and each synthetic peptide was evaluated for its inhibitory effect on phage accumulation using, as a reference value, the ratio of accumulation of the peptide-expressing phage in tumor without simultaneous administration of the synthetic peptide.

In assay [2] the test system is B16BL6 melanoma tumor tissue. Put plainly: Competitive inhibition experiment using the respective phages and synthetic 8-residue or 5-residue peptides. It is filed as in vivo, C57BL/6 mice. The settings on record: for inhibition of phage accumulation in tumor by 5-residue synthetic peptides: FIG. 2, SEQ ID NO:15 with phage No. 5, SEQ ID NO:16 with phage No. 6. The procedure:
as §1
Using a similar method as described above under (2) and using the four short-chain peptides (SEQ ID NO:13 to 16) obtained as mentioned above under (2) in lieu of the synthetic peptides (SEQ ID NO:5 and 6), the synthetic peptides and the respective phages were administered and colony forming units for the phages accumulated in the tumor tissue were counted, and the short-chain synthetic peptides were evaluated for their inhibitory effect on phage accumulation. In a control group,synthetic peptide-free phage solutions (1×10^8 colony forming units) were administered.
In each figure, the ordinate denotes the phase accumulation percentage (%) and the abscissa denotes the phage number. In FIG. 1, the open bar is for the group (control group) given the phage alone without administration of any synthetic peptide, the shaded bar is for the group given the short-chain synthetic peptide shown in SEQ ID NO:13 and the closed bar is for the group given the short-chain synthetic peptide shown in SEQ ID NO:14.
In FIG. 2, the open bar is for the group (control group) given the phage alone without administration of any synthetic peptide, the closed bar is for the group given the short-chain peptide shown in SEQ ID NO:15 (where phage No. 5 was used) and the shaded bar is for the group given the short-chain peptide shown in SEQ ID NO:16 (where phage No. 6 was used).

Where [3] appears, read: 20 mg/kg/day subcutaneously, days 1 to 10.
[4] abbreviates: FIG. 6, subcutaneously, days 1 to 10, vs physiological saline.
Where [5] appears, read: accumulation of phage No. 1 (1×10^8 cfu) co-administered with 0.25 μmol synthetic peptide.
The mark [6] stands for this setting: accumulation of phage No. 5 (1×10^8 cfu) co-administered with 0.25 μmol synthetic peptide.
[7] abbreviates: accumulation of phage No. 6 (1×10^8 cfu) co-administered with 0.25 μmol synthetic peptide.
Where [8] appears, read: inhibition of phage No. 1 accumulation in tumor by 0.25 μmol synthetic peptide.
Setting [9] is: inhibition of phage No. 5 accumulation in tumor by 0.25 μmol synthetic peptide.
[10] abbreviates: inhibition of phage No. 6 accumulation in tumor by 0.25 μmol synthetic peptide.

With “SEQ ID NO: 30: 4-Residue peptide comprising positions 3 to 12 of SEQ ID NO: 5 (WRPA; phage library)”, in the assay on Meth A sarcoma (setting [3]), the “antitumor activity (tumor volume)” value is on record as “has antitumor activity” and the “order of intensities of the antitumor activity” value (“order” below) is recorded as “peptide of SEQ ID NO:28=peptide of SEQ ID NO:29>peptide of SEQ ID NO:30=peptide of SEQ ID NO:31>peptide of SEQ ID NO:32”.
Taken in the same sequence, the figures for “SEQ ID NO: 29: 4-Residue peptide comprising positions 9 to 12 of SEQ ID NO: 6 (HWRP; phage library)” were “has antitumor activity” and “peptide of SEQ ID NO:28=peptide of SEQ ID NO:29>peptide of SEQ ID NO:30=peptide of SEQ ID NO:31>peptide of SEQ ID NO:32”.
Turning to APRPG (APRPG-NH2) [SEQ ID NO: 17], the “tumor growth inhibiting activity (tumor volume)” value (“tumor growth inhibiting activity” for short) with Meth A sarcoma (setting [4]) was “tendency toward inhibition of tumor growth”.
For the substance “SEQ ID NO: 19: 12-Residue peptide containing positions 1 to 8 of SEQ ID NO: 1 (ADGAPRPGAPLA; phage library)”, the “tumor growth inhibiting activity” value in the assay on Meth A sarcoma (setting [4]) is on record as “tendency toward inhibition of tumor growth”.
Regarding “(DRWRPALPVVLFPLH)8-Lys4-Lys2-Lys-βAla (also: octameric lysine dendrimer (Lys4-Lys2-Lys-βAla core), 8 copies)”, the “tumor growth inhibiting effect (tumor volume)” value (shortened to “tumor growth inhibiting effect”) with Meth A sarcoma (20 mg/kg/day subcutaneously) is on record as “marked tumor growth inhibiting effects”.
For the substance “SEQ ID NO: 28: 4-Residue peptide comprising positions 2 to 5 of SEQ ID NO: 5 (RWRP; phage library)”, in the assay on Meth A sarcoma (setting [3]), the “antitumor activity (tumor volume)” value is “has antitumor activity” and the “order” value is listed as “peptide of SEQ ID NO:28=peptide of SEQ ID NO:29>peptide of SEQ ID NO:30=peptide of SEQ ID NO:31>peptide of SEQ ID NO:32”.
For “(PRPGAPLAGSWPGTS)8-Lys4-Lys2-Lys-βAla (also: octameric lysine dendrimer (Lys4-Lys2-Lys-βAla core), 8 copies)”, the “tumor growth inhibiting effect” value in the assay on Meth A sarcoma (20 mg/kg/day subcutaneously) is “marked tumor growth inhibiting effects”. In addition, the “tumor growth inhibiting activity” value in the assay with Meth A sarcoma (FIG. 5, 10 and 20 mg/kg×twice/day subcutaneously, days 1 to 10) was “dose-dependent tumor growth inhibiting activity”.
For the substance “ASSSYPLIHWRPWAR (phage library) [SEQ ID NO: 6]”, the “% Dose/100 mg tissue” value is on record as 5.92 × 10^−3 % Dose/100 mg tissue in assay [1] (setting [5]), 3.61 × 10^−3 % Dose/100 mg tissue in assay [1] (setting [6]) and 6.43 × 10^−3 % Dose/100 mg tissue in assay [1] (setting [7]). Also, the results for the Accumulation inhibition % in assay [1] (setting [8]), in assay [1] (setting [9]) and in assay [1] (setting [10]) were 55%, 76% and 44%, respectively. For the same substance, the “inhibitory activity against accumulation of phages Nos. 5 and 6” value in assay [1] was “crosswise inhibitory activity”.
In the case of HWRPW (HWRPW-NH2) [SEQ ID NO: 16], in assay [2], the “inhibition of phage accumulation in tumor by 5-residue synthetic peptides” value was “inhibit likewise the accumulation in tumor of the phages”.
For “Trp-Arg-Pro (WRP; phage library) [SEQ ID NO: 32]”, in the assay on Meth A sarcoma (setting [3]), the “antitumor activity (tumor volume)” value is recorded as “has antitumor activity” and the “order” value is recorded as “peptide of SEQ ID NO:28=peptide of SEQ ID NO:29>peptide of SEQ ID NO:30=peptide of SEQ ID NO:31>peptide of SEQ ID NO:32”.
Take “DRWRPALPVVLFPLH (phage library) [SEQ ID NO: 5]”: the “% Dose/100 mg tissue” value in assay [1] (setting [5]) is listed as 6.36 × 10^−3 % Dose/100 mg tissue; in assay [1] (setting [6]), 5.08 × 10^−3 % Dose/100 mg tissue; in assay [1] (setting [7]), 6.60 × 10^−3 % Dose/100 mg tissue. Further, the Accumulation inhibition % amounted to 52% in assay [1] (setting [8]), 66% in assay [1] (setting [9]) and 43% in assay [1] (setting [10]). The “inhibitory activity against accumulation of phages Nos. 5 and 6” value in assay [1] is “crosswise inhibitory activity”. In the assay on Meth A sarcoma (FIG. 7, 20 mg/kg/day subcutaneously, days 4 to 9), the “tumor growth inhibiting activity” value is given as “have tumor growth inhibiting activity”.
Take “SEQ ID NO: 13: 8-Residue peptide comprising positions 1 to 8 of SEQ ID NO: 5 (DRWRPALP; phage library)”: in assay [2] (FIG. 1), the “cross reactivity between phages” value is listed as “showed cross reactivity” and the “inhibitory activity compared with the 15-residue synthetic peptides” value is reported as “higher in inhibitory activity than the 15-resiude synthetic peptides”. In assay [2] (FIG. 1, phages expressing the corresponding 15-residue peptides (Nos. 5 and 6)), the “inhibition of phage accumulation by 8-residue synthetic peptides” value is recorded as “inhibited the accumulation of the phages”.
With “(ASSSYPLIHWRPWAR)8-LYs4-Lys2-Lys-βAla (also: octameric lysine dendrimer (Lys4-Lys2-Lys-βAla core), 8 copies)”, the “tumor growth inhibiting effect” value with Meth A sarcoma (20 mg/kg/day subcutaneously) is “marked tumor growth inhibiting effects”.
As to RWRPA (RWRPA-NH2) [SEQ ID NO: 15], the “inhibition of phage accumulation in tumor by 5-residue synthetic peptides” value in assay [2] is on record as “inhibit likewise the accumulation in tumor of the phages”.
As to “PRPGAPLAGSWPGTS (phage library) [SEQ ID NO: 1]”, the results for the “% Dose/100 mg tissue” value in assay [1] (setting [5]), in assay [1] (setting [6]) and in assay [1] (setting [7]) were 5.95 × 10^−3 % Dose/100 mg tissue, 1.35 × 10^−2 % Dose/100 mg tissue and 1.14 × 10^−2 % Dose/100 mg tissue, respectively. For the same substance, the Accumulation inhibition % is 55% in assay [1] (setting [8]) and 9% in assay [1] (setting [9]).
As for “SEQ ID NO: 31: 4-Residue peptide comprising positions 10 to 13 of SEQ ID NO: 6 (WRPW; phage library)”, in the assay on Meth A sarcoma (setting [3]), the “antitumor activity (tumor volume)” value is recorded as “has antitumor activity” and the “order” value is listed as “peptide of SEQ ID NO:28=peptide of SEQ ID NO:29>peptide of SEQ ID NO:30=peptide of SEQ ID NO:31>peptide of SEQ ID NO:32”.

Source of the values: patent US6753310B1, “Neovascular-specific peptides” (Otsuka Pharmaceutical Co., Ltd., priority 1998, dated 2004).
